# Results as given in ChEMBL document CHEMBL3885861, “Open TG-GATES”.
# Organism: Rattus norvegicus
# Experiment: Open TG-GATES - Regimen: Single
# Assay type: toxicity, organism-based, Sprague-Dawley
# Set-up: regimen Single, gender Male, age 6 weeks
# Settings: in vivo, po, route gavage; for APTT / Bas / Eos / Fbg / Hb / Ht / Lym / MCH / MCHC / MCV / Mono / Neu / PT / Plat / Ret / WBC: tissue Blood; for KIDNEY_L / KIDNEY_R / KIDNEY_TOTAL: tissue Kidney; for LIVER: tissue Liver; for ALP / ALT / AST / BUN / CRE / Ca / DBIL / GLC / IP / K / LDH / Na / PL / RALB / TBIL / TC / TG / TP / gamma-GTP: tissue Plasma
# [1] = 30 mg/kg, 3 h, dose level Middle
# [2] = 30 mg/kg, 6 h, dose level Middle
# [3] = 30 mg/kg, 9 h, dose level Middle
# [4] = 30 mg/kg, 24 h, dose level Middle
# [5] = 100 mg/kg, 3 h, dose level High
# [6] = 100 mg/kg, 6 h, dose level High
# [7] = 100 mg/kg, 9 h, dose level High
# [8] = 100 mg/kg, 24 h, dose level High
smiles,measurement,setting,value
CN(C)CCCN1c2ccccc2CCc2ccc(Cl)cc21 [CLOMIPRAMINE],APTT,[1],16.4 s
same,Bas,[1],0.2%
same,Eos,[1],0.6%
same,Fbg,[1],254 mg/dL
same,Hb,[1],14.2 g/dL
same,Ht,[1],43.6%
same,Lym,[1],71.2%
same,MCH,[1],21 pg
same,MCHC,[1],32.6%
same,MCV,[1],64.5 fL
same,Mono,[1],2.8%
same,Neu,[1],24%
same,PT,[1],13.6 s
same,Plat,[1],115.5 x10_4/uL
same,Ret,[1],7.9%
same,WBC,[1],95.4 x10_2/uL
same,KIDNEY_L,[1],1 g
same,KIDNEY_R,[1],1 g
same,KIDNEY_TOTAL,[1],1.9 g
same,LIVER,[1],9.7 g
same,ALP,[1],1675.2 IU/L
same,ALT,[1],38.4 IU/L
same,AST,[1],77.8 IU/L
same,BUN,[1],9.8 mg/dL
same,CRE,[1],0.2 mg/dL
same,Ca,[1],10.8 mg/dL
same,DBIL,[1],0.016 mg/dL
same,GLC,[1],187.8 mg/dL
same,IP,[1],9.6 mg/dL
same,K,[1],4 meq/L
same,LDH,[1],96 IU/L
same,Na,[1],141 meq/L
same,PL,[1],145.4 mg/dL
same,RALB,[1],2.5 g/dL
same,TBIL,[1],0.062 mg/dL
same,TC,[1],75.2 mg/dL
same,TG,[1],78.8 mg/dL
same,TP,[1],5.2 g/dL
same,gamma-GTP,[1],1 IU/L
same,TERMINAL_BW,[2],214.2 g
same,APTT,[2],15.9 s
same,Bas,[2],0.2%
same,Eos,[2],0.8%
same,Fbg,[2],241.2 mg/dL
same,Hb,[2],14.1 g/dL
same,Ht,[2],43.9%
same,Lym,[2],78.2%
same,MCH,[2],20.2 pg
same,MCHC,[2],32.2%
same,MCV,[2],62.8 fL
same,Mono,[2],2.6%
same,Neu,[2],17.2%
same,PT,[2],13.7 s
same,Plat,[2],114.1 x10_4/uL
same,Ret,[2],7.6%
same,WBC,[2],82.3 x10_2/uL
same,KIDNEY_L,[2],1 g
same,KIDNEY_R,[2],1 g
same,KIDNEY_TOTAL,[2],2 g
same,LIVER,[2],9.2 g
same,ALP,[2],1672.6 IU/L
same,ALT,[2],39.2 IU/L
same,AST,[2],73.8 IU/L
same,BUN,[2],7.2 mg/dL
same,CRE,[2],0.2 mg/dL
same,DBIL,[2],0.02 mg/dL
same,GLC,[2],186.4 mg/dL
same,IP,[2],9.9 mg/dL
same,K,[2],4.2 meq/L
same,LDH,[2],75.4 IU/L
same,Na,[2],141.4 meq/L
same,PL,[2],134.6 mg/dL
same,RALB,[2],2.5 g/dL
same,TBIL,[2],0.068 mg/dL
same,TC,[2],74.4 mg/dL
same,TG,[2],55.8 mg/dL
same,TP,[2],5.3 g/dL
same,gamma-GTP,[2],1.2 IU/L
same,TERMINAL_BW,[3],211.3 g
same,APTT,[3],17.1 s
same,Bas,[3],0%
same,Eos,[3],1.2%
same,Fbg,[3],273.6 mg/dL
same,Hb,[3],13.9 g/dL
same,Ht,[3],42.6%
same,Lym,[3],77.8%
same,MCH,[3],20.4 pg
same,MCHC,[3],32.6%
same,MCV,[3],62.6 fL
same,Mono,[3],2.2%
same,Neu,[3],17.8%
same,PT,[3],13.8 s
same,Plat,[3],124.6 x10_4/uL
same,Ret,[3],7.7%
same,WBC,[3],83.2 x10_2/uL
same,KIDNEY_L,[3],1 g
same,KIDNEY_R,[3],0.9 g
same,KIDNEY_TOTAL,[3],1.9 g
same,LIVER,[3],8.5 g
same,ALP,[3],1468.8 IU/L
same,ALT,[3],36.2 IU/L
same,AST,[3],71.8 IU/L
same,BUN,[3],7.4 mg/dL
same,CRE,[3],0.2 mg/dL
same,Ca,[3],10.5 mg/dL
same,DBIL,[3],0.024 mg/dL
same,GLC,[3],174 mg/dL
same,IP,[3],10.5 mg/dL
same,K,[3],4.1 meq/L
same,LDH,[3],86.4 IU/L
same,Na,[3],140.6 meq/L
same,PL,[3],143 mg/dL
same,RALB,[3],2.6 g/dL
same,TBIL,[3],0.076 mg/dL
same,TC,[3],83.4 mg/dL
same,TG,[3],34.2 mg/dL
same,TP,[3],5.4 g/dL
same,gamma-GTP,[3],1 IU/L
same,TERMINAL_BW,[4],231.8 g
same,APTT,[4],16.9 s
same,Bas,[4],0%
same,Eos,[4],0.6%
same,Fbg,[4],247.6 mg/dL
same,Ht,[4],41.2%
same,Lym,[4],81.6%
same,MCH,[4],20.6 pg
same,MCHC,[4],32.3%
same,MCV,[4],63.9 fL
same,Mono,[4],2.6%
same,Neu,[4],14%
same,PT,[4],13.8 s
same,Plat,[4],116.6 x10_4/uL
same,Ret,[4],7.1%
same,WBC,[4],83.8 x10_2/uL
same,KIDNEY_L,[4],1 g
same,KIDNEY_R,[4],1 g
same,KIDNEY_TOTAL,[4],2.1 g
same,LIVER,[4],10.5 g
same,ALP,[4],2253 IU/L
same,ALT,[4],44.2 IU/L
same,AST,[4],76.8 IU/L
same,BUN,[4],13.2 mg/dL
same,CRE,[4],0.2 mg/dL
same,Ca,[4],10.9 mg/dL
same,DBIL,[4],0.028 mg/dL
same,GLC,[4],179 mg/dL
same,IP,[4],8 mg/dL
same,K,[4],4.1 meq/L
same,LDH,[4],93.8 IU/L
same,Na,[4],141.4 meq/L
same,PL,[4],159 mg/dL
same,RALB,[4],2.6 g/dL
same,TBIL,[4],0.062 mg/dL
same,TC,[4],80.2 mg/dL
same,TG,[4],115.2 mg/dL
same,TP,[4],5.5 g/dL
same,gamma-GTP,[4],1.2 IU/L
same,TERMINAL_BW,[5],215.5 g
same,APTT,[5],16.9 s
same,Bas,[5],0%
same,Eos,[5],0.8%
same,Fbg,[5],257.8 mg/dL
same,Hb,[5],14.1 g/dL
same,Ht,[5],43.3%
same,Lym,[5],77.8%
same,MCH,[5],21.2 pg
same,MCHC,[5],32.6%
same,MCV,[5],64.9 fL
same,Mono,[5],3.4%
same,Neu,[5],17.2%
same,PT,[5],13.5 s
same,Plat,[5],125.6 x10_4/uL
same,Ret,[5],8%
same,WBC,[5],69.8 x10_2/uL
same,KIDNEY_L,[5],1 g
same,KIDNEY_R,[5],0.9 g
same,KIDNEY_TOTAL,[5],1.9 g
same,LIVER,[5],10.1 g
same,ALP,[5],1835 IU/L
same,ALT,[5],42.8 IU/L
same,AST,[5],76.6 IU/L
same,BUN,[5],7.4 mg/dL
same,CRE,[5],0.1 mg/dL
same,Ca,[5],10.5 mg/dL
same,DBIL,[5],0.036 mg/dL
same,GLC,[5],188.8 mg/dL
same,IP,[5],9.6 mg/dL
same,K,[5],3.9 meq/L
same,LDH,[5],116.6 IU/L
same,Na,[5],142.2 meq/L
same,PL,[5],147 mg/dL
same,RALB,[5],2.5 g/dL
same,TBIL,[5],0.068 mg/dL
same,TC,[5],73.8 mg/dL
same,TG,[5],85.4 mg/dL
same,TP,[5],5.3 g/dL
same,gamma-GTP,[5],1 IU/L
same,TERMINAL_BW,[6],210.3 g
same,APTT,[6],17.8 s
same,Bas,[6],0%
same,Eos,[6],1%
same,Fbg,[6],276 mg/dL
same,Hb,[6],14.2 g/dL
same,Ht,[6],44%
same,Lym,[6],75.6%
same,MCH,[6],21.3 pg
same,MCHC,[6],32.2%
same,MCV,[6],66.2 fL
same,Mono,[6],2.8%
same,Neu,[6],20%
same,PT,[6],13.9 s
same,Plat,[6],125.1 x10_4/uL
same,Ret,[6],8.2%
same,WBC,[6],69.9 x10_2/uL
same,KIDNEY_L,[6],1 g
same,KIDNEY_R,[6],1 g
same,KIDNEY_TOTAL,[6],2 g
same,LIVER,[6],9.2 g
same,ALP,[6],1949.8 IU/L
same,ALT,[6],40.6 IU/L
same,AST,[6],76.2 IU/L
same,BUN,[6],6.8 mg/dL
same,CRE,[6],0.1 mg/dL
same,Ca,[6],10.4 mg/dL
same,DBIL,[6],0.042 mg/dL
same,GLC,[6],187.4 mg/dL
same,IP,[6],9.7 mg/dL
same,K,[6],4.1 meq/L
same,LDH,[6],103.8 IU/L
same,Na,[6],142.8 meq/L
same,PL,[6],134.6 mg/dL
same,RALB,[6],2.5 g/dL
same,TBIL,[6],0.064 mg/dL
same,TC,[6],71.4 mg/dL
same,TG,[6],53 mg/dL
same,TP,[6],5.2 g/dL
same,gamma-GTP,[6],1 IU/L
same,TERMINAL_BW,[7],208.4 g
same,APTT,[7],16.6 s
same,Bas,[7],0%
same,Eos,[7],1%
same,Fbg,[7],270.4 mg/dL
same,Hb,[7],14.1 g/dL
same,Ht,[7],43.6%
same,Lym,[7],71.2%
same,MCH,[7],21 pg
same,MCHC,[7],32.3%
same,MCV,[7],65.1 fL
same,Mono,[7],2%
same,Neu,[7],25.2%
same,PT,[7],13.9 s
same,Plat,[7],144.8 x10_4/uL
same,Ret,[7],8.1%
same,WBC,[7],72.8 x10_2/uL
same,KIDNEY_L,[7],1 g
same,KIDNEY_R,[7],1 g
same,KIDNEY_TOTAL,[7],2 g
same,LIVER,[7],9 g
same,ALP,[7],1702 IU/L
same,ALT,[7],32.4 IU/L
same,AST,[7],71.2 IU/L
same,BUN,[7],6.4 mg/dL
same,CRE,[7],0.1 mg/dL
same,Ca,[7],10.2 mg/dL
same,DBIL,[7],0.04 mg/dL
same,GLC,[7],194.6 mg/dL
same,IP,[7],9.8 mg/dL
same,K,[7],3.7 meq/L
same,LDH,[7],91 IU/L
same,Na,[7],142.6 meq/L
same,PL,[7],137.4 mg/dL
same,RALB,[7],2.5 g/dL
same,TBIL,[7],0.064 mg/dL
same,TC,[7],72.8 mg/dL
same,TG,[7],39 mg/dL
same,TP,[7],5.2 g/dL
same,gamma-GTP,[7],1 IU/L
same,TERMINAL_BW,[8],217.7 g
same,APTT,[8],19.3 s
same,Bas,[8],0.2%
same,Eos,[8],1%
same,Fbg,[8],278.8 mg/dL
same,Hb,[8],14.1 g/dL
same,Ht,[8],43.4%
same,Lym,[8],78.2%
same,MCH,[8],20.6 pg
same,MCHC,[8],32.5%
same,MCV,[8],63.5 fL
same,Mono,[8],2.6%
same,Neu,[8],17.4%
same,PT,[8],13.5 s
same,Plat,[8],144.2 x10_4/uL
same,Ret,[8],7.4%
same,WBC,[8],91.7 x10_2/uL
same,KIDNEY_L,[8],1 g
same,KIDNEY_R,[8],1 g
same,KIDNEY_TOTAL,[8],2 g
same,LIVER,[8],9.6 g
same,ALP,[8],1855 IU/L
same,ALT,[8],43 IU/L
same,AST,[8],69.8 IU/L
same,BUN,[8],15.4 mg/dL
same,CRE,[8],0.2 mg/dL
same,Ca,[8],10.8 mg/dL
same,DBIL,[8],0.046 mg/dL
same,GLC,[8],180.6 mg/dL
same,IP,[8],8.3 mg/dL
same,K,[8],4 meq/L
same,LDH,[8],92 IU/L
same,Na,[8],141.8 meq/L
same,PL,[8],168.4 mg/dL
same,RALB,[8],2.7 g/dL
same,TBIL,[8],0.056 mg/dL
same,TC,[8],98.2 mg/dL
same,TG,[8],96.2 mg/dL
same,TP,[8],5.7 g/dL
same,gamma-GTP,[8],1 IU/L
